Patent EP0097127A2, “Cephalosporin derivatives, process for their preparation and pharmaceutical compositions containing them” (CIBA-GEIGY AG, priority 1982, dated 1983)

What was measured:
Assay in all cases: Chemotherapeutic activity against systemic infection in mice
Format in all cases: in vivo
[1] = tested on: Escherichia coli 2018; conditions: systemic infection in mice with Escherichia coli 2018; oral application
Protocol: (§1) Die Verbindungen der Formel I, worin Am eine freie Aminogruppe ist und ihre pharmazeutisch verwendbaren, nichttoxischen Salze sind wertvolle, antibiotisch wirksame Substanzen, die insbesondere als antibakterielle Antibiotika verwendet werden können. Beispielsweise haben sie in vivo bei oraler Applikation an der Maus bei systemischen Infektionen mit Staphylococcus aureus eine ED50 von etwa 70-100 mg/kg, und bei systemischen Infektionen mit Enterobakterien, z.B. Escherichia coli, Klebsiella pneumonia, Proteus mirabilis oder Proteus morganii eine ED50 von etwa 0.35 bis 100 mg/kg.
(§2) Chemotherapeutische Wirksamkeit gegen systemische Infektionen in Mäusen.

[2] = tested on: Klebsiella pneumonia; conditions: Klebsiella pneumoniae; systemic infection in mice with Klebsiella pneumonia; oral application
Protocol: as §1, §2

[3] = tested on: Staphylococcus aureus 10B; conditions: systemic infection in mice with Staphylococcus aureus 10B; oral application
Protocol: as §1, §2

[4] = tested on: Proteus morganii; conditions: Morganella morganii; systemic infection in mice with Proteus morganii; oral application
Protocol: as §1, §2

[5] = tested on: Escherichia coli 205; conditions: systemic infection in mice with Escherichia coli 205; oral application
Protocol: as §1, §2

[6] = tested on: Proteus mirabilis; conditions: systemic infection in mice with Proteus mirabilis; oral application
Protocol: as §1, §2

Compound	ED50 [1]	ED50 [2]	ED50 [3]	ED50 [4]	ED50 [5]	ED50 [6]
CO/N=C(\C(=O)N[C@@H]1C(=O)N2C(C(=O)OCC(=O)O[C@@H]3C[C@@H]4CC[C@@]3(C)C4(C)C)=CCS[C@H]12)c1csc(N)n1 [Testverbindung 1, Ceftizoxime-(ℓ)-bornyloxycarbonylmethylester]	0.35 mg/kg	6 mg/kg	70 mg/kg	30 mg/kg	1 mg/kg	10 mg/kg
CO/N=C(\C(=O)N[C@@H]1C(=O)N2C(C(=O)OCC(=O)OC3CCCCC3)=CCS[C@H]12)c1csc(N)n1 [Testverbindung 2, Ceftizoxime-cyclohexyloxycarbonylmethylester]	0.4 mg/kg	7 mg/kg	> 100 mg/kg	> 100 mg/kg	0.5 to 5 mg/kg	> 30 mg/kg
CO/N=C(\C(=O)N[C@@H]1C(=O)N2C(C(=O)OCC(=O)O[C@@H]3C[C@H](C)CC[C@H]3C(C)C)=CCS[C@H]12)c1csc(N)n1 [Testverbindung 3, Ceftizoxime-(9)-menthyloxycarbonylmethylester]	1.5 mg/kg	4 mg/kg	30 to 100 mg/kg	100 mg/kg	4 mg/kg	≥ 30 mg/kg
